Assay results published in patent publication US11278549B2, “Method of treating obesity” (McMaster University, priority 2013, dated 2022).

What was measured:
[1] = system: BAT cells; assay: Serotonin on isoproterenol-stimulated cAMP and thermogenic program in BAT cells; format: cell-based, mouse; settings: serotonin prior to isoproterenol
Experimental: To examine whether serotonin could alter cAMP and the induction of the thermogenic program in a cell autonomous manner, BAT cells were treated with the concentrations of serotonin observed in the BAT of Tph1^+/+ mice fed a HFD (FIG. 9b) prior to stimulation with isoproterenol ([…]). Serotonin treatment attenuated isoproterenol-stimulated cAMP and phosphorylation of protein kinase A substrates such as hormone sensitive lipase (HSL […]-FIG. 9c) and importantly also blunted the induction of the thermogenic gene program (FIG. 9d-f). […] Cell Culture. An immortalized brown adipocyte (BA) cell line derived from mouse fetal brown fat (as described in Uldry et al., Cell metabolism, 3 (2006) 333-341) was cultured and differentiated as previously described in Mottillo, Journal of Biological Chemistry, 287 (2012) 25038-25048. Briefly, confluent cells were placed in induction media (0.5 mM IBMX; 0.25 mM indomethacin; 2 μg/ml dexamethasone; 1 nM T3, 20 nM insulin) for two days and subsequently maintained on differentiation media (1 nM T3, 20 nM insulin). All experiments were performed on cultures 6-8 days post-induction. Unless otherwise indicated, cells were rinsed with PBS and media was changed to HEPES-buffered Krebs Ringer buffer (HKRB)+1% BSA. Where indicated, BAs were treated with serotonin for 30 min (100 μM; Sigma) followed by isoproterenol (1 nM, Sigma) for 4 h. […] cAMP measurements. cAMP levels were measured in BA stimulated for 10 min with isoproterenol (1 nM). […] The cAMP levels were quantified by ELISA (Biomedical Technologies Inc.) as previously described (Mottillo et al., American Journal of Physiology-Endocrinology And Metabolism, 301 (2011) […]-[…]). […] The expression pattern of various genes was quantified by qRT-PCR analysis, as previously described (Mottillo et al., American journal of physiology, 293 (2007) […]-1197). […] 25 ng of cDNA was analyzed in a 10 μl quantitative PCR reaction (Amplitaq Gold) as previously described. […] The extracts were recovered and proteins were quantified by using the bicinchoninic acid method (Pierce). […]

[2] = system: brown adipose tissue; assay: Acute 5-HT with or without xylamidine pretreatment: BAT activity in vivo; set-up: species or system mice
Experimental: Mice housed at 30° C. were injected with xylamidine (3 mg/kg, −2 hour), 5-HT (5 mg/kg, −1 hour) and/or CL-316,243 (1 mg/kg, −20 min). […] Interscapular surface temperature under saline (C) and CL-316,243 (D) conditions were quantified. n=6. † indicates interaction effect via 2-way ANOVA. * indicates significant difference from saline via bonferonni post-hoc test. In all graphs, bars represent mean and error bars represent S.E.M;
(§1) To investigate effects in vivo, 5-HT (5 mg/kg i.p.) was acutely administered to mice with or without a peripherally-restricted 5-HT2A antagonist (xylamidine tosylate) (3 mg/kg i.p.) to assess BAT function. Chow fed female FVBNJ mice (Jackson laboratories) were fasted for 6 hours. Each mouse was intraperitoneal injected with Vehicle (0.9% NaCl) or Xylamidine (3 mg/kg in 0.9% NaCl) at −100 minutes, followed by Vehicle or 5-HT (5 mg/kg in 0.9% NaCl) at −40 minutes, and finally Glucose ([…]) at 0 minutes. Blood glucose was monitored at the indicated times (FIG. 22). Chow mice were administered xylamidine tosylate (3 mg/kg daily) via intraperitoneal injection for ˜5 weeks. Mice were then moved to anaesthetized and injected with either saline or CL-316,243. Oxygen consumption was recorded while at 30° C. Finally, xylamidine tosylate (3 mg/kg i.p. daily) was administered to mice on a HFD and indices of whole body metabolism, such as resting energy expenditure, glucose tolerance and NAFLD, were evaluated. The mRNA and protein expression of markers of beige adipose tissue (UCP1, PRDM16, NDUFB8, SDHB, MTCO1, UQCRC2 and ATP5A) were also evaluated.

[3] = system: 5-HT receptor; assay: Isoproterenol-induced lipolysis (FFA release) in immortalized BAT cells; format: cell-based, mouse; settings: 5-HT at 100 μM, n=2
Experimental: Briefly, confluent cells were placed in induction media (0.5 mM IBMX; 0.25 mM indomethacin; 2 μg/ml dexamethasone; 1 nM T3, 20 nM insulin) for two days and subsequently maintained on differentiation media (1 nM T3, 20 nM insulin). All experiments were performed on cultures 6-8 days post-induction. Unless otherwise indicated, cells were rinsed with PBS and media was changed to HEPES-buffered Krebs Ringer buffer (HKRB)+1% BSA. Where indicated, BAs were treated with serotonin for 30 min (100 μM; Sigma) followed by isoproterenol (1 nM, Sigma) for 4 h. The serotonin receptor antagonist, methysergide (3 μM) was used 45 min prior treatment with serotonin as above.

[4] = target: T1, 5-HT2A (Mus musculus, UniProt P35363); assay: Fluo-4 Ca2+ signals in brown adipocytes; format: cell-based
T1 construct: endogenous in cells; host or cells: immortalized murine brown adipocytes (differentiated)
Excerpt: Immortalized BA progenitor cells obtained from 5-HT2A KO (B6; 129-5-HT2Atm1a/Nju from Nanjing Biomedical Research Institute of Nanjing University) mice were differentiated for 9 days to produce mature BAs. Cells were then stained with fluo-4 and treated with different concentrations of 5-HT to obtain a dose response curve. Values from BAs expressing 5-HT2A used for other experiments were plotted as a WT comparison.

[5] = system: UCP1; assay: Ucp1 promoter activity, Ucp1 mRNA and UCP1 protein in brown adipocytes; format: cell-based, mouse
Experimental: Using RNA-Seq, cultured human brown and beige adipocytes were interrogated for 5-HT receptor mRNA expression. Immortalized murine brown adipocytes (BAs) were treated with or without the selective 5-HT reuptake inhibitor (SSRI), paroxetine (250 nM). Subsequent studies were conducted with and without 5-HT2A agonists (1 pM-10 uM TCB-2, 1 pM-10 uM AL-34662, and 1 pM-10 uM NBOH-2C-CN) and 5-HT2A antagonists (100 fM-100 pM MDL-100907, 100 pM-10 uM xylamidine tosylate, 1 nM ketanserin, 10 nM altanserin, 100 fM-100 pM EMD-281,014, and 100 pM-10 uM sarpogrelate hydrochloride).
BA progenitors were isolated and immortalized from WT and serotonin transporter (SERT; Gene: Slc6a4) KO mice. These cells were then differentiated for 7 days to obtain mature BAs. BAs were then treated with different doses of 5-HT for 4 hours. RNA was isolated and quantified using RT-qPCR with probes specific for Slc6a4, Ucp1 and PPIA.
BA progenitors were isolated from mice expressing a transgene where the luciferase gene is driven by the Ucp1 promoter (i.e. Ucp1-Luc2 mice; a.k.a. ThermoMouse; Jackson Laboratories). Upon 9 days of differentiation, these BAs were treated for 4 hours with different doses of 5-HT. Because in vitro there is not a continuous supply of 5-HT as there is in vivo, cells were treated with paroxetine to inhibit the uptake and consequent degradation of 5-HT, and to observe 5-HT receptor specific effects. These cells were then lysed, incubated with a luciferin assay cocktail, and the light generated quantified on a microplate reader.

[6] = system: Chow mice; assay: Repeated xylamidine tosylate in chow mice: BAT energy expenditure with saline or CL-316,243; format: in vivo
Experimental: as §1

[7] = system: Chow fed female FVBNJ mice; assay: Acute xylamidine, 5-HT and glucose injection: glucose tolerance; format: in vivo; settings: acute administration 3 mg/kg i.p.; effect larger when pre-treated with 5-HT
Experimental: as §1

[8] = system: mice on a HFD; assay: Chronic xylamidine tosylate in mice on a HFD; format: in vivo
Experimental: (B) graphically depicts the fat content of mice from (A). […] Bars/points represent mean and error bars indicate S.E.M;
as §1

[9] = chronic administration, high fat diet

T1 sequence (P35363 whole entry): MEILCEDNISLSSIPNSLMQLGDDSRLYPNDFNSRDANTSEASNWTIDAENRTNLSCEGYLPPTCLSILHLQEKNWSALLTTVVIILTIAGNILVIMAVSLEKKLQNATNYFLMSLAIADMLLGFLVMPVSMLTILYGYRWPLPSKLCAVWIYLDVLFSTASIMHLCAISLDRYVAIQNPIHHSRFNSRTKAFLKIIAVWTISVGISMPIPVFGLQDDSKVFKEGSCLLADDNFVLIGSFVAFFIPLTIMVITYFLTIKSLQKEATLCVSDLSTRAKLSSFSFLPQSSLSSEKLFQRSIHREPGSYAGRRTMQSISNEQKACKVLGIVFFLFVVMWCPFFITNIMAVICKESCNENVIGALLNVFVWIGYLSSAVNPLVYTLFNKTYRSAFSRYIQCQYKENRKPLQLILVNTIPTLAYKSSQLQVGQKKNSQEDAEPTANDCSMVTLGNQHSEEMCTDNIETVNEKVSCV

NCCc1c[nH]c2ccc(O)cc12 [5-HT, 5-hydroxytryptamine]
isoproterenol-stimulated cAMP [1]: attenuated
phosphorylation of protein kinase A substrates (HSL S660) [1]: attenuated
induction of the thermogenic gene program ([1]; Pgc1a, Pdk4, Ucp1): blunted
brown adipose tissue associated oxygen consumption and inter-scapular surface area temperature ([2]; BAT activated with CL-316,243, 5 mg/kg 5-HT): significantly attenuated
markers of brown adipose tissue activity (VO2, interscapular surface temperature) ([2]; thermoneutral conditions, BAT inactive (saline), 5 mg/kg 5-HT): no effect
isoproterenol-induced increases in lipolysis [3]: blunts
Ca2+ levels ([4]; brown adipocytes stained with Fluo-4, agonist treatment): increased
Ucp1 mRNA ([5]; brown adipocytes): decreased
Ucp1 promoter activity ([5]; brown adipocytes): decreased
UCP1 protein levels ([5]; brown adipocytes, chronic treatment for NBOH-2C-CN): decreased
UCP1 protein content ([5]; cultured brown adipocytes, only in the presence of paroxetine (SSRI), 8 days): decreased

COc1cccc(OC(C)CNC(=N)Cc2cccc(C)c2)c1.Cc1ccc(S(=O)(=O)O)cc1 (stereo not shown) [xylamidine tosylate]
effects of 5-HT on BAT activity ([2]; pre-treatment 3 mg/kg, CL-316,243 activated BAT): completely blocked
brown adipose tissue specific energy expenditure ([6]; chow mice, repeated administration 3 mg/kg daily ~5 weeks, CL-316,243): increased
energy expenditure when BAT is inactive ([6]; saline): no effect
glucose tolerance [7]: improved
5-HT induced Ca2+ transients ([4]; pre-treatment with antagonist): attenuated
oxygen consumption, heat production, and non-moving oxygen consumption ([8]; 3 mg/kg daily, high fat diet): increased
glucose tolerance ([8]; 3 mg/kg daily, high fat diet (45% of calories from fat)): improved
iWAT levels of UCP1 and mitochondrial proteins [8, 9]: increased
iWAT mRNA levels of Prdm16 [8, 9]: elevated
liver triglycerides levels [8, 9]: significantly reduced
weight gain and increases in fat mass [8, 9]: prevented
